Data as given in publication PMC12844208, “Screening for Peptides to Bind and Functionally Inhibit SARS-CoV-2 Fusion Peptide Using Mirrored Combinatorial Phage Display and Human Proteomic Phage Display” (Molecules, 2026).

Tested on: spike-FP12 peptide
Type: binding, SARS-CoV-2

Sequence | % Count | Count (read counts of phage display binding to FP)
QLEHVKLFMQDLSAML | 9.07% | 4673
NFRLSEHRQALAAAKH | 0.00% | 2
DTLLPTQQAEVLHPVV | 2.70% | 1392
GPDRNFRLSEHRQALA | 6.59% | 3393
SFQYADIYEQMMLTGL | 0.01% | 5
HPNIKRVTPQRKVFRS | 0.01% | 3
TLPFGDVEYVDLDAFL | 0.29% | 148
GSSYAEMEVMKMIMTL | 0.06% | 31
